Data set [1] deals with experimental diabetic neuropathy. The experiment in a line: Intraepidermal nerve fiber density (IENFD) in plantar skin of STZ-diabetic mice. The data set is classed as in vivo. Here is the method:
(§1) The primary objective of these experiments was to determine the effect of oral Foretinib on cutaneous innervation density in an experimental diabetic neuropathy. The numbers of animals needed for these experiments were determined by power analysis based on preliminary experiments assessing the cutaneous innervation density in diabetic and non-diabetic mice. A 50% increased nerve fiber density compared to the diabetic control was considered scientifically relevant, requiring a minimum of n=5 animals per group to achieve a power of 0.9 when assuming a standard deviation (SD) of 0.01 for all groups (normally distributed, two-sided). Animals were randomly allocated to experimental groups prior to induction of diabetes and the investigators were blinded during outcome assessments. Two experimental animals allocated to the Foretinib treated group were excluded from the experiment after not responding to the STZ injections. No outliers were excluded from the analysis. After five weeks, the experiment was terminated because 4 of 8 animals reached a predefined humane endpoint of greater than 15% weight loss compared to their pre-diabetic weight. The scheduled experimental endpoint was 12 weeks post-STZ injection.
A total of 25 adult (24-28g), transgenic mice with a genetic black six background were included. […]

Data set [2] in a line: Potential side effects and body weight under daily oral Foretinib in STZ-diabetic mice. Format: in vivo. On the procedure:
as §1, with “injection. […]” for “injection.”

For data set [3], the system named is wt and Sod1^G93A cultured mouse MN. The data set can be described thus: Survival of trophic factor-deprived cultured mouse motor neurons. The data set is classed as cell-based.
Data set [4] has as its system sympathetic and sensory neurons. The data set can be described thus: Neuroprotection in primary culture of sympathetic and sensory neurons (trophic deprivation). The data set is classed as cell-based.

Molecules are shown by their SMILES. Where only a bound is given, the exact number is not on record here.

Turning to `COc1cc2c(Oc3ccc(NC(=O)C4(C(=O)Nc5ccc(F)cc5)CC4)cc3F)ccnc2cc1OCCCN1CCOCC1` [Foretinib, N1-[3-Fluoro-4-({6-methoxy-7-[3-(morpholin-4-yl)propoxy]quinolin-4-yl}oxy)phenyl]-N′1-(4-fluorophenyl)cyclopropane-1,1-dicarboxamide], in data set [1] (30 mg/kg oral daily, 5 weeks post-diabetes induction, versus other diabetic groups), the “intraepidermal nerve fiber density (IENFD), plantar skin” value is “similarly reduced IENFD”. Further, the “reduction in epidermal nerve fiber density compared to healthy mice” value in data set [1] (all diabetic groups incl. Foretinib 30 mg/kg/day oral, five weeks after diabetes induction) was determined as 25%. Further, the “relative body weight change versus pre-diabetic weight” value in data set [2] (30 mg/kg oral daily, 5 weeks post-injection, group mean) is recorded as less than −15%. Further, the “signs of increased distress” value in data set [2] (30 mg/kg orally via daily gavage, after four weeks of daily treatment) is “lethargic behavior, ruffled fur, and weight loss”. The “survival of trophic factor-deprived motor neurons” value in data set [3] was “induced survival”. The same compound returned an effective neuroprotective concentration in data set [4] of more than 100 nM.

(Values after patent publication US20250281496A1, “METHODS OF TREATING NEUROPATHY USING FORETINIB AND COMPOSITIONS THEREOF” (INDIANA UNIVERSITY RESEARCH AND TECHNOLOGY CORPORATION, priority 2022, published 2025).)
